In US6376488B1, “Benzoxazine α-1 adrenergic compounds” (Abbott Laboratories, priority 2000, dated 2002):
Counter-ions that a name gives are not always drawn.

Row | melting point [°C] | SMILES
1 | 280 to 282 | COc1cccc2c1N1CCN(CCCCn3c(=O)[nH]c4c(sc5cccnc54)c3=O)CC1CO2 (single isomer, unassigned; (+)) (as salt: hydrochloride) [Example 14, (+) 3-[4-(10-methoxy-1,2,4a,5-tetrahydropyrazino[2,1-c][1,4]benzoxazin-3(4H)-yl)butyl]pyido [2′,3′:4,5]thieno[3,2-d]pyrimidine-2,4(1H,3H)-dione trihydrochloride]
2 | 282 to 284 | O=c1[nH]c2c(sc3cccnc32)c(=O)n1CCCCN1CCN2c3ccccc3OCC2C1 (single isomer, unassigned; (-)) (as salt: hydrochloride) [Example 4, (−) 3-[4-(1.2,4a,5-tetrahydropyrazino[2,1-c][1,4benzoxazin-3(4H)-yl)butyl]pyrido[2′,3′:4,5]thieno[3,2-d]pyrimidine-2,4(1H,3H)-dione dihydrochloride]
3 | 207 to 210 | COc1cccc2c1N1CCN(CCCCn3c(=O)[nH]c4c(sc5ncccc54)c3=O)CC1CO2 (single isomer, unassigned; (-)) (as salt: hydrochloride) [Example 11, (−) 3-[4-(10-methoxy-1,2,4a,5-tetrahydropyrazino[2,1-c][1,4]benzoxazin-3(4H)-yl)butyl]pyrido[3′,2′:4.5]thieno[3,2-d]pyrimidine-2,4(1H,3H)-dione trihydrochloride]
